From patent US7982043B2, “Protein tyrosine kinase enzyme inhibitors” (Wyeth LLC, priority 2003, dated 2011)
In brackets after ≈: the same amount, converted by molar mass. Like-named read-outs stand apart in the source and are kept apart here.

Legend:
3T3 cells = experiment: Cell proliferation assay (SRB), 3T3; format: cell-based, mouse; conditions: Mus musculus
BT474 cells = experiment: Cell proliferation assay (SRB), BT474; format: cell-based, human; conditions: Homo sapiens, BT-474, 144 h; EGFR +, Her-2 +++; 6 days, SRB; read-out: CELL IC50 BT474
xenografts of SK-OV-3 = experiment: SK-OV-3 tumor xenograft in nude mice; format: in vivo, mouse; conditions: day 35
EGFR [1] = target: T1, EGFR (Homo sapiens, UniProt P00533); experiment: Cell-free autophosphorylation kinase assay (ELISA), EGFR; format: biochemical; parameters: Purified recombinant C-terminal fragment of each enzyme is incubated with ATP; conditions: read-out: Enzyme IC50 EGFR (converted)
Target sequence in this assay (P00533 669-1210 limits assumed): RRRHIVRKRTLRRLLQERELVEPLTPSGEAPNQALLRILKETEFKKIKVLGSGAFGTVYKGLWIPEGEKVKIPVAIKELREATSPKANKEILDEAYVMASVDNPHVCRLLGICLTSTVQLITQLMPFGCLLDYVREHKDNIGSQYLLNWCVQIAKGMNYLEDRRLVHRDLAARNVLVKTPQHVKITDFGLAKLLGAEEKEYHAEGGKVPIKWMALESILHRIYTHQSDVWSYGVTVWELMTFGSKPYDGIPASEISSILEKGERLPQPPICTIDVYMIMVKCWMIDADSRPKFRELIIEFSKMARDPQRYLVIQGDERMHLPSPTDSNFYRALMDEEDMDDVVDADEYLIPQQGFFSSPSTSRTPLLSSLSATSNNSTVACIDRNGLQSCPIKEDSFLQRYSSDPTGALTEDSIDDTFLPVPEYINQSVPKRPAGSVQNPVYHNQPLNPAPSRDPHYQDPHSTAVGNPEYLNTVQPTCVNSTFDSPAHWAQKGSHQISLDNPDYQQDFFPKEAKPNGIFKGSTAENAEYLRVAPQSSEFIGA

SK-Br-3 cells = experiment: Cell proliferation assay (SRB), SK-Br-3; format: cell-based; conditions: Homo sapiens, SK-BR-3, 48 h; EGFR −, Her-2 +++; 2 days, SRB; read-out: CELL IC50 SKBr3
Her-2 = target: T2, Her-2 (Homo sapiens, UniProt P04626); experiment: Her-2 receptor phosphorylation in BT474 cells (immunoblot); format: cell-based
T2 construct: For Her-2 and EGFR phosphorylation assays, cells (BT474 and A431, respectively) were incubated with various concentrations of compound; endogenous in cells; host or cells: BT474

[2] = test system: HER-2 overexpressing human xenograft models; experiment: HER-2 overexpressing human xenograft models (overall); format: in vivo, mouse
[3] = target: mouse fibroblast cell line transfected with the HER-2 oncogene (3T3/neu) (UniProt P04626, cells depend on it, species not given); experiment: Cell proliferation assay (SRB), 3T3/neu; format: cell-based; conditions: EGFR −, Her-2 +++; 2 days, SRB; read-out: CELL IC50 3T3/NEU (converted)
SW620 cells = experiment: Cell proliferation assay (SRB), SW620; format: cell-based; conditions: Homo sapiens, SW-620, 48 h; EGFR −, Her-2 −; 2 days, SRB; read-out: CELL IC50 SW620
[4] = test system: xenografts of 3T3/neu cells; experiment: 3T3/neu tumor xenograft in nude mice; format: in vivo, mouse; conditions: for tumor growth inhibition: day 21
A431 cells = experiment: Cell proliferation assay (SRB), A431; format: cell-based; conditions: Homo sapiens, A-431, 48 h; EGFR +++, Her-2 +; 2 days, SRB; read-out: CELL IC50 A431
BT474 xenografts = experiment: BT474 tumor xenograft in nude mice; format: in vivo, mouse; conditions: day 21
EGFR [5] = target: T1, EGFR; experiment: EGFR receptor phosphorylation in A431 cells (immunoblot); format: cell-based; parameters: They also repressed EGF-dependent phosphorylation of EGFR in A431 cells; endogenous in cells; host or cells: A431
Target sequence in this assay (P00533 25-1210): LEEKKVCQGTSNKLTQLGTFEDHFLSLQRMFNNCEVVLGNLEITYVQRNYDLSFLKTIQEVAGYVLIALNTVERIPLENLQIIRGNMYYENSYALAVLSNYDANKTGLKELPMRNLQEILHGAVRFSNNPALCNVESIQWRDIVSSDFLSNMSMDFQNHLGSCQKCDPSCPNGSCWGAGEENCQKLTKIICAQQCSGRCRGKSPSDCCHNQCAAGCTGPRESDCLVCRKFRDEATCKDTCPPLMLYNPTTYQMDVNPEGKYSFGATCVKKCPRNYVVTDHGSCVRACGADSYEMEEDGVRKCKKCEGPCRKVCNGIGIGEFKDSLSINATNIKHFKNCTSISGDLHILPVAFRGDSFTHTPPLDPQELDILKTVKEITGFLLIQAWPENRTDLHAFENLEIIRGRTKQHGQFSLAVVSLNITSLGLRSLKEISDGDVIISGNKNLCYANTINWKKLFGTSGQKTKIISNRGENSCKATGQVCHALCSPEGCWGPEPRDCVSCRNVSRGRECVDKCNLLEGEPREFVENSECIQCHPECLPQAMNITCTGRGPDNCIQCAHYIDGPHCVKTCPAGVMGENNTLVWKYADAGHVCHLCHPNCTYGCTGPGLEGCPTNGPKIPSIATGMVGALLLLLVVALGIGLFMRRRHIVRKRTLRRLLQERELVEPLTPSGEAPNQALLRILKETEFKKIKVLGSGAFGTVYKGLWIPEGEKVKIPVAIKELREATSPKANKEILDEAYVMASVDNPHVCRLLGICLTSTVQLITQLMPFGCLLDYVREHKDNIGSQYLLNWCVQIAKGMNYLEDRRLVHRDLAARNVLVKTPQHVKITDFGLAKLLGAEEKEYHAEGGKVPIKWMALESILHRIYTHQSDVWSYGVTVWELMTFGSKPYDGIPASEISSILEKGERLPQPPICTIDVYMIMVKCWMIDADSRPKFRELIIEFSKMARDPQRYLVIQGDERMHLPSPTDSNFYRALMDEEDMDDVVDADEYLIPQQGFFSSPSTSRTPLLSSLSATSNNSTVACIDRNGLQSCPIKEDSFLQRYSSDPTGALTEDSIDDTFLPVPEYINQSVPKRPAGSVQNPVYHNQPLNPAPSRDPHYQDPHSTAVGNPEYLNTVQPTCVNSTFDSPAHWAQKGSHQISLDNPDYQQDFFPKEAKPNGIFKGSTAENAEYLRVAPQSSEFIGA

[6] = target: T3, recombinant cytoplasmic domain of HER-2 (Homo sapiens, UniProt P04626); experiment: Cell-free autophosphorylation kinase assay (ELISA), HER-2; format: biochemical
T3 construct: In a cell-free autophosphorylation assay using the recombinant cytoplasmic domain of HER-2

MDA-MB-435 cells = experiment: Cell proliferation assay (SRB), MDA-MB-435; format: cell-based; conditions: Homo sapiens, MDA-MB-435, 48 h; EGFR −, Her-2 −; 2 days, SRB; read-out: CELL IC50 MDA-MB-435
xenografts of SUM-190 = experiment: SUM-190 tumor xenograft in nude mice; format: in vivo, mouse; conditions: 40 mg/kg/day PO, day 28

T3 sequence (P04626 676-1255 limits assumed): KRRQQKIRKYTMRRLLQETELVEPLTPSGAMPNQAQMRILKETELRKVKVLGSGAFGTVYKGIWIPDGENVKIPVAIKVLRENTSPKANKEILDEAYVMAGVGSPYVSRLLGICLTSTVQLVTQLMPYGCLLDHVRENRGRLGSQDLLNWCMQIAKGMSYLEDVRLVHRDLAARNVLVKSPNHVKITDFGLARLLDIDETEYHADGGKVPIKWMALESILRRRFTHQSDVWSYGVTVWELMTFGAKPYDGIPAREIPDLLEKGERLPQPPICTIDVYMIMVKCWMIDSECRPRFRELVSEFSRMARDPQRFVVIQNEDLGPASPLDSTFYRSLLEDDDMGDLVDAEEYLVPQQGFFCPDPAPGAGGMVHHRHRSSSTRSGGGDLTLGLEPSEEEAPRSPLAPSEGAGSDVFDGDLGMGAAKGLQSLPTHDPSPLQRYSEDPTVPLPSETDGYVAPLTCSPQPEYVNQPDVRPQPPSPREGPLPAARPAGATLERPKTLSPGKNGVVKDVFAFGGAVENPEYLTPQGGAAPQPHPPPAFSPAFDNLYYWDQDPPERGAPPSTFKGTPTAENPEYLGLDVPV
T2 sequence (P04626 23-1255): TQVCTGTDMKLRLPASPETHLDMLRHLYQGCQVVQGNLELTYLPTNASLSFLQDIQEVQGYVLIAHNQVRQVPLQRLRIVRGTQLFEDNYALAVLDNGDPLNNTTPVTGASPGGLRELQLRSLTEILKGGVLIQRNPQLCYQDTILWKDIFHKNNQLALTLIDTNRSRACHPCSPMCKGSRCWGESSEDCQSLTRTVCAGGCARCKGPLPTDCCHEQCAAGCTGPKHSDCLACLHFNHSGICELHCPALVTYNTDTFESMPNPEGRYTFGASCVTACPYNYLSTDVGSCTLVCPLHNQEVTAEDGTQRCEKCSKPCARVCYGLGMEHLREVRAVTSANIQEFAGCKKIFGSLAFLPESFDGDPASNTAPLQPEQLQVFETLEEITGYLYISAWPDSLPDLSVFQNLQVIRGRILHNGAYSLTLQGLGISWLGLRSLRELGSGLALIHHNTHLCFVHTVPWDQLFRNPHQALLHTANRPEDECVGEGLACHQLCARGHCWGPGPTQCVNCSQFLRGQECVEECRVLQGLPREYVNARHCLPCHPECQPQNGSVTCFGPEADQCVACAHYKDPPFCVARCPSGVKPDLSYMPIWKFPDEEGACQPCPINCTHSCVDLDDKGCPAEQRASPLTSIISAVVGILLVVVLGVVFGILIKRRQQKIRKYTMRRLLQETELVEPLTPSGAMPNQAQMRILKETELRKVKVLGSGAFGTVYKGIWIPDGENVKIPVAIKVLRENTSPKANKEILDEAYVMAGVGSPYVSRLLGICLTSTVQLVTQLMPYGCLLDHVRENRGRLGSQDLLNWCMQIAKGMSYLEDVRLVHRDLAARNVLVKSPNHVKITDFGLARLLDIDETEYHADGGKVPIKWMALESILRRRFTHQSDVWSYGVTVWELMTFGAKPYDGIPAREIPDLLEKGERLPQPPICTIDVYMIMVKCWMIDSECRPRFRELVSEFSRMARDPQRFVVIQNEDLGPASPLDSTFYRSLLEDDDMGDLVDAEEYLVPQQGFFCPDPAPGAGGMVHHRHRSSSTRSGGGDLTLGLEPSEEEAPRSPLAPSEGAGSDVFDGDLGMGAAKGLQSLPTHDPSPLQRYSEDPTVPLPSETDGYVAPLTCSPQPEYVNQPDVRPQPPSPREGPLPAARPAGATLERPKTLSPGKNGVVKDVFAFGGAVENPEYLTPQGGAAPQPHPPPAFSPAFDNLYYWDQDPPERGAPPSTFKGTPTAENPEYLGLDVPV

IC50 (BT474 cells): 0.0024 µg/mL (≈ 0.00418 µM)
IC50 (EGFR [1]): 33.1 nM
IC50 (SK-Br-3 cells): 0.0015 µg/mL (≈ 0.00261 µM)
IC50 (Her-2; Her-2 phosphorylation, 3 hours at 37° C., immunoblot, read-out: IC50 receptor phosphorylation BT474 (converted)): 22.6 nM
IC50 (Her-2; ligand-independent receptor phosphorylation decreased by 50% (IC50) in BT474 cells, span over the three compounds): 5 to 23 nM
GI50 [3]: 4.01 nM
IC50 (SW620 cells): 0.29 µg/mL (≈ 0.505 µM)
IC50 (A431 cells): 0.069 µg/mL (≈ 0.12 µM)
IC50 receptor phosphorylation A431 (EGFR [5]; EGFR phosphorylation, 3 hours at 37° C., immunoblot): 0.0042 µg/mL (≈ 0.00732 µM)
IC50 (EGFR [5]; span over the three compounds, read-out: EGF-dependent phosphorylation of EGFR in A431 cells IC50): 3 to 7 nM
inhibition of the HER-2 enzyme (in words) [6]: potent inhibitors
IC50 ([6]; HER-2 enzyme activity reduced by 50% (IC50), span over the three inhibitors): 33 to 65 nM
Enzyme IC50 HER-2 ([6]; autophosphorylation, ELISA): 0.019 µg/mL
IC50 (MDA-MB-435 cells): 0.51 µg/mL (≈ 0.888 µM)
SMILES: CCOc1cc2ncc(C#N)c(Nc3ccc(OCc4cccc(F)c4)c(Cl)c3)c2cc1NC(=O)/C=C/CN(C)C [Example 3, (E)-N-(4-{3-chloro-4-[(3-fluorobenzyl)oxy]anilino}-3-cyano-7-ethoxy-6-quinolinyl)-4-(dimethylamino)-2-butenamide]
IC50 (3T3 cells; NIH3T3, 48 h, EGFR −, Her-2 −, 2 days, SRB, read-out: CELL IC50 3T3): 0.52 µg/mL
IC50 (3T3 cells; NIH3T3, span over the three compounds, read-out: IC50 isogenic untransfected cells (3T3)): 683 to 906 nM
tumor growth inhibition (xenografts of SK-OV-3; 20 mg/kg/day PO): 86%
tumor growth inhibition (xenografts of SK-OV-3; 60 mg/kg/day PO): 91%
tumor behaviour after treatment was completed (in words) ([2]; after end of treatment): evidence of re-growth
tumor regression (in words) ([2]; during dosing): no decrease in tumor size below the initial size
MED in the HER-2 overexpressing human xenograft models ([2]; mouse, in vivo): 10 mg/kg/day
tumor growth inhibition, statistically-significant ([4]; 10 mg/kg/day PO, two other independent tests): 21-33%
tumor growth inhibition ([4]; 20 mg/kg/day PO): 65%
tumor growth inhibition ([4]; 40 mg/kg/day PO): 97%
tumor growth inhibition ([4]; 80 mg/kg/day PO): 99%
minimum efficacious dose (MED) ([4]; smallest dose with sustained, statistically-significant (p<0.05) reduction of tumor growth): 10 mg/kg/day
maximum tumor growth inhibition (BT474 xenografts; 10 mg/kg/day PO): 59%
maximum tumor growth inhibition (BT474 xenografts; 40 mg/kg/day PO): 96%
tumor growth inhibition (xenografts of SUM-190): 94%
